Columns and labels:
βTC-6 cells = experiment: Tolbutamide-induced insulin secretion in βTC-6 cells (FIG. 2); assay type: cell-based
Protocol: FIG. 2 is a graph showing the effect of Composition A on tolbutamide-induced insulin secretion in βTC-6 cells.
(§1) In order to avoid interference from the natural insulin secretagogue glucose, the effect of Composition A on insulin secretion was studied under glucose-free conditions. The sulfonylurea compound, tolbutamide was used as the insulin secretagogue in the studies of the effect of Composition A on stimulated insulin secretion.
(§2) Insulin assays were performed using the rat insulin assay kit purchased from Crystal Chemists, Inc. (Chicago, Ill., USA). This kit uses a in an Enzyme Linked Immunosorbent Assay (non-competitive sandwich method). The assay was performed according to the manufacturer's protocol. Briefly, the standard or sample (5 μl) diluted with a sample diluent was added to the wells of a multi-well polystyrene plate. The wells were precoated with antiinsulin antibody. After 2 hours of incubation, the wells were thoroughly washed with a washing buffer. A peroxidase-conjugated antiinsulin antibody solution was then added to the well. […] The color was read in an microplate reader using a 405 filter. […]
(§3) The effect of Composition A on tolbutamide-induced insulin secretion in HIT-T15 and βTC-6 cells is shown in […]. […] Samples were measured 1 hour later. […]

HIT-T15 cells = experiment: Tolbutamide-induced insulin secretion in HIT-T15 cells (FIG. 3); assay type: cell-based; conditions: FIG. 3, tolbutamide alone, 1 hour; without tolbutamide about 0.17
Protocol: FIG. 3 is a graph showing the effect of Composition A on tolbutamide-induced insulin secretion in HIT-T15 cells.
as §1, §2, §3

## CCCCNC(=O)NS(=O)(=O)c1ccc(C)cc1 [tolbutamide]
βTC-6 cells; FIG. 2, tolbutamide 10 μg/ml alone, 1 hour, without tolbutamide 0.9
  Insulin production with tolbutamide alone: 1.2 ng/ml/mg protein
βTC-6 cells; βTC-6, 1-hour period following glucose deprivation and replacement of the medium
  More insulin secreted by tolbutamide-treated cells than by untreated cells: approximately 30%
HIT-T15 cells
  Insulin secretion with tolbutamide alone: about 0.3 ng/ml/mg protein
